Test results published in US20040102454A1, “Phenylahistin and the phenylahistin analogs, a new class of anti-tumor compounds” (priority 1998, published 2004).
pIC50: −log10 of the molar value. Converted amounts (≈) assume the structure as drawn. “And” between values parts separate entries of the source, which are not always exact repeats. Identical values can stand only once. Like-named read-outs stand apart in the source and are kept apart here. One block for each molecule: values may come before it.

Columns and labels:
[1] = test system: Microtubule protein from bovine brain; test: Microtubule protein polymerization assay (turbidity); format: biochemical
Procedure: Microtubule protein was prepared from bovine brain tissue by two cycles of assembly and disassembly according to the method of Tiwari, S. C. et al. Anal. Biochem, (1993), 215, 96-103. Tubulin was purified from microtubule protein by phosphocellulose chromatography see Algaier, J. et al. Biochim. Biophys. Acta, (1988), 954, 235-43, and tubulin purity was evaluated by polyacrylamide gel electrophoresis, as in Laemmli, U.K., Nature, (1970), […], 680-85. […] Protein concentrations were determined using the Coomassie® Protein Assay Reagent from Pierce (Rockford, Ill.).
Polymerization of microtubule protein was monitored by an increase in turbidity at 37° C. in microtubule assembly buffer containing 100 mM MES, 0.5 mM MgCl2, 1 mM EGTA and 1 mM GTP. See Johnson, K. A. et al., J. Mol. Biol., (1977), 117, 1-31. Polymerization of purified tubulin was measured using the same method except the microtubule assembly buffer contained 4 M glycerol. See Lee, J. C. et al., Biochemistry, (1975), 14, 5183-87. Microtubule protein and tubulin polymerization was initiated by a temperature shift from 0° C. to 37° C. and turbidity was measured on a DU-20 thermocontrolled spectrophotometer from Beckman (Fullerton, Calif.) at 360 nm. Drugs were dissolved in dimethyl sulfoxide (DMSO), which was used in all experiments at a final concentration of 2% (v/v).
For this example, the microtubule protein polymerization assay was performed as follows. Microtubule protein was prepared from bovine brain tissue by two cycles of assembly and disassembly. Polymerization of microtubule protein was monitored by an increase in turbidity at 37° C. in microtubule assembly buffer containing 100 mM MES, 0.5 mM MgCl2, 1 mM EGTA and 1 mM GTP. The polymerization of microtubule protein was initiated by a temperature shift from 0° C. to 37° C. Turbidity was measured on a thermo-controlled spectrophotometer (Beckman DU-20, Fullerton, Calif.) at 360 nm. Compounds were dissolved in DMSO, which was used in all experiments at a final concentration of 2% (v/v).

[2] = test system: P388 cells; test: P388 proliferation, Alamar Blue assay; format: cell-based, murine; details: Mus musculus, P388
Procedure: For this example, the Alamar Blue™ assay was performed as follows. Exponentially growing P388 cells were seeded into 96-well tissue culture plates (5×10^3 cells/100 μl/well) and cultured in RPMI 1640 medium supplemented with 10% fetal bovine serum for 16 h. Compounds (DMSO solution) were then added to each well at various concentrations, and the cells were cultured for an additional 48 h. Living cells were counted using Alamar Blue™ (BioSource International, Camarillo, Calif.), according to the method of Ahmed, S. A. et al., J. Immunol. Methods, 170, 211 (1994).

[3] = test system: K-562, human chronic myelogenic leukemia cells; test: Cell proliferation inhibiting effect, MTT (Example 5); format: cell-based; details: K562, K-562, 48-hours incubation
Procedure: (§1) K-562, human chronic myelogenic leukemia cells were cultured in […] culture medium (containing 10% bovine fetus serum) and A-431 human pudendal epithelial squamous cancer cells were cultured in DMEM culture medium, containing 10% bovine fetus serum. To these a continuous dilution series of the (+)-phenylahistin obtained in EXAMPLE 1 was added. After 48-hours incubation, a MTT reagent was added to measure growth.

[4] = test system: A-431 human pudendal epithelial squamous cancer cells; test: as above; format: cell-based; details: A-431, 48-hours incubation
Procedure: as §1

[5] = test system: seven human cancer cell lines; test: Antiproliferative activity, MTT assay, all lines of Table 7; format: cell-based
Procedure: (§2) In order to examine detailed biological activity, especially antitumor activity of both (+)- and (−)-phenylahistin, resolution of (+)- and (−)-phenylahistin using chiral HPLC was conducted. By repeating chiral separation twice or three times, each enantiomer with an optical purity over 99.8% was obtained, and each enantiomer was recrystallizes from ethanol-hexane mixture.
(§3) Antitumor activity of (+)- and (−)-phenylahistin was examined against seven human cancer cell lines including A431, WiDr, TE-671, Hela, MCF7, A-549 and K562 cells.

[6] = test system: P388 cells; test: Cell cycle progression of P388, flow cytometer; format: cell-based, murine; details: 1×10^−5 M, 8-hour incubation; 97.8% e.e.
Procedure: The effect of phenylahistin on the cell cycle progression of P388 cells was also investigated using a flow cytometer, as described in Krishan, A., J. Cell Biol. (1975) 66, 188-193. P388 cells in the log growth phase were seeded into flasks and cultured for 14 hours, and then various concentrations of phenylahistin were added to each flask. After an 8-hour incubation, the cells were harvested and fixed with 50% MeOH at −20° C. overnight. The cells were washed with 30% MeOH and then with 10 mM PBS, and treated with 50 :g/ml propidium iodide at 4° C. for 2 hours. DNA histograms were obtained using a flow cytometer (Cyto ACE-300:JASCO).

[7] = test system: P388 murine leukemia cells; test: Cytotoxic effects of the phenylahistin enantiomers (Example 8); format: cell-based; details: Mus musculus, (−) 92.2% e.e., (+) 97.8% e.e.
Source text: The cytotoxic effects of the enantiomers of phenylahistin on P388 murine leukemia cells were examined. […] Judging from the content of (−)-phenylahistin in (+)-phenylahistin, (+)-phenylahistin was considered to have relatively low cytotoxicity to P388 cells.

[8] = test system: A549 (lung); test: Antiproliferative activity, MTT assay (Table 7); format: cell-based; details: Homo sapiens, optical purity over 99.8%
Procedure: as §2, §3

[9] = test system: MCF7 (breast); test: Antiproliferative activity, MTT assay (Table 7); format: cell-based; details: Homo sapiens, optical purity over 99.8%
Procedure: as §2, §3

[10] = test system: WiDr (colon); test: Antiproliferative activity, MTT assay (Table 7); format: cell-based; details: Homo sapiens, optical purity over 99.8%
Procedure: as §2, §3

[11] = test system: Hela (ovary); test: Antiproliferative activity, MTT assay (Table 7); format: cell-based; details: Homo sapiens, optical purity over 99.8%
Procedure: as §2, §3

[12] = test system: TE-671 (CNS); test: Antiproliferative activity, MTT assay (Table 7); format: cell-based; details: Homo sapiens, TE-671, TE-671 (CNS), optical purity over 99.8%
Procedure: as §2, §3

[13] = test system: A-431 (damal); test: Antiproliferative activity, MTT assay (Table 7); format: cell-based; details: Homo sapiens, optical purity over 99.8%
Procedure: as §2, §3

[14] = test system: K562 (leukemia); test: Antiproliferative activity, MTT assay (Table 7); format: cell-based; details: Homo sapiens, optical purity over 99.8%
Procedure: as §2, §3

[15] = test system: HL-60/MX-2 (Mitoxantrone-Resistant) human acute promyelocytic leukemia cell line; test: Drug resistant cell line pair, cytotoxicity; format: cell-based
Source text: HL-60 (Mitoxantrone-Sensitive) and HL-60/MX-2 (Mitoxantrone-Resistant) This cell line is considered to have atypical drug resistance properties with altered topoisomerase II catalytic activity without overexpression of P-glycoprotein.

[16] = test system: MES-SA DX (Taxol Resistant) human uterine sarcoma tumor cell line; test: Drug resistant cell line pair, cytotoxicity; format: cell-based
Source text: MES-SA (Taxol Sensitive) and MES-SA DX (Taxol Resistant). This cell line expresses elevated mdr-1 mRNA and P-glycoprotein (an extrusion pump mechanism). Pretreatment with cyclosporin-A (CsA) blocks P-glycoprotein and reinstates activity in the resistant cell line for those compounds for which the resistance is due to elevated P-glycoprotein.

[17] = test system: HL-60 (Mitoxantrone-Sensitive) human acute promyelocytic leukemia cell line; test: Drug resistant cell line pair, cytotoxicity; format: cell-based; details: Homo sapiens; HL-60 Sensitive
Source text: 2) Human Acute Promyelocytic Leukemia Cell Line Pair: HL-60 (Mitoxantrone-Sensitive) and HL-60/MX-2 (Mitoxantrone-Resistant)
This cell line is considered to have atypical drug resistance properties with altered topoisomerase II catalytic activity without overexpression of P-glycoprotein.

[18] = test system: Jurkat cells
[19] = test system: Jurkat cells; test: Cytotoxicity in Jurkat cells; details: Homo sapiens, read-out: Cytotoxicity Potency IC50

- pIC50 ([1]; microtubule protein 1.5 mg/mL (Table 9), read-out: IC50 Microtubule Protein polymerization): < 3.70
- pIC50 ([1]; microtubule protein 1.5 mg/ml (Table 4), read-out: IC50 for Microtubule Protein Polymerization): < 3.70
- pIC50 ([2]; Alamar Blue assay (Table 4), read-out: IC50 for P388 Proliferation): 5.00
- pIC50 ([2]; means (±SEM) of three experiments (Table 9), read-out: IC50 P388 proliferation): 5.00
- IC50 [3]: 13.3 µg/mL (≈ 38 µM)
- IC50 [4]: 2.9 µg/mL (≈ 8.28 µM)
- pIC50 [8]: 4.52
- pIC50 [9]: 4.96
- pIC50 [11]: 5.00
- pIC50 [13]: 4.70
- pIC50 [14]: 5.00
SMILES: C=CC(C)(C)c1[nH]cnc1/C=C1\NC(=O)[C@@H](Cc2ccccc2)NC1=O [(+)-phenylahistin]
- inhibition percentage at 200 μM, microtubule protein polymerization ([1]; 200 μM): 15%
- microtubule assembly ([1]; concentrations up to 200 μM): did not affect microtubule assembly
- fold less activity than (−)-PLH [5]: 33 to 100 fold
- cell cycle inhibitory activity (G2/M) [6]: no effect
- pIC50 [7]: 4.42
- pIC50 [10]: 5.07
- pIC50 [12]: 3.89

SMILES: O=C1c2c(O)ccc(O)c2C(=O)c2c(NCCNCCO)ccc(NCCNCCO)c21 [Mitoxantrone, reference compound]
- Ratio to Sensitive ([15]; HL-60 Resistant versus Sensitive): 24 and 24.1
- pIC50 ([15]; Homo sapiens, HL60/MX2, HL-60 Resistant): 5.31
- reduced susceptibility of the MES-SA DX cell line [16]: 20 fold
- pIC50 [17]: 6.69
- Cytotoxicity Efficacy % Cell Death [18]: 99%
- pIC50 [19]: 7.39
